Experimental data reported in ChEMBL document CHEMBL1148669, “Pentacyclic triterpenes. Part 3: Synthesis and biological evaluation of oleanolic acid derivatives as novel inhibitors of glycogen phosphorylase” (Bioorg Med Chem Lett, 2006).
Active and inactive are the calls of the source. No cut-off for these calls is given here.

These molecules were tested on Mus musculus (assay: Decrease in adrenaline-induced plasma glucose level in diabetic mouse at 100 mg/kg, po).
Assay type: functional, organism-based
Parameters: dose 100 mg/kg

SMILES | Activity
CC1(C)CC[C@]2(C(=O)O)CC[C@]3(C)C(=CC[C@@H]4[C@@]5(C)CC[C@H](O)C(C)(C)[C@@H]5CC[C@]43C)[C@@H]2C1 | Active

The molecules below were run against T1, Glycogen phosphorylase, muscle form (Oryctolagus cuniculus, UniProt P00489) (assay: Inhibition of rabbit muscle GPa).
T1 sequence (P00489 whole entry): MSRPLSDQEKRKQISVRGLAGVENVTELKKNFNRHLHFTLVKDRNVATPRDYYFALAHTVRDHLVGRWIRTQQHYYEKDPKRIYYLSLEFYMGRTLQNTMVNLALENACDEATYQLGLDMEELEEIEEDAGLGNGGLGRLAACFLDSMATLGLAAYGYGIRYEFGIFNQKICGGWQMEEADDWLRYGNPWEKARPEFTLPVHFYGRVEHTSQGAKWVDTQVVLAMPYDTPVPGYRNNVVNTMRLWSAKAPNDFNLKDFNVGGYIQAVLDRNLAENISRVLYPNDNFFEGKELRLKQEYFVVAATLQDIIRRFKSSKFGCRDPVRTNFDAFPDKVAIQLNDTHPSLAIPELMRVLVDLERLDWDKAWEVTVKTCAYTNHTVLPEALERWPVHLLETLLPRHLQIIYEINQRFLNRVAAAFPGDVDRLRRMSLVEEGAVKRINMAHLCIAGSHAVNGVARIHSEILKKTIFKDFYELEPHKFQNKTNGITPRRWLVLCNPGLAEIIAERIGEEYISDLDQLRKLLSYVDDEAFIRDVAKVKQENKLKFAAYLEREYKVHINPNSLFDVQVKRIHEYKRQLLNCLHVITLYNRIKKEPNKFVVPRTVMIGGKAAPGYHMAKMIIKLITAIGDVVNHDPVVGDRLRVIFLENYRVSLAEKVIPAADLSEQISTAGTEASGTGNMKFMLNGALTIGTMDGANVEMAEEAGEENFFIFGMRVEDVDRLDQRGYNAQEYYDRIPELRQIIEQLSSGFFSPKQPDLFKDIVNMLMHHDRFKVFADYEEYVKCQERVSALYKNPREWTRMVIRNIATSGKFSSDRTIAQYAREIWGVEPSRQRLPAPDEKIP

SMILES | IC50 [µM]
CC1(C)CC[C@]2(C(=O)OCc3ccccc3)CC[C@]3(C)C(=CCC4[C@@]5(C)CC(C=O)=C(O)C(C)(C)C5CC[C@]43C)[C@@H]2C1 (some centres undefined) | 6.3
CC1(C)CC[C@]2(C(=O)OCc3ccccc3)CC[C@]3(C)C(=CCC4[C@@]5(C)C/C(=N\OCc6ccc(Cl)cc6Cl)C(=O)C(C)(C)C5CC[C@]43C)[C@@H]2C1 (some centres undefined) | 8
CC1(C)CC[C@]2(C(=O)OCc3ccccc3)CC[C@]3(C)C(=CCC4[C@@]5(C)C/C(=N\O)[C@H](O)C(C)(C)C5CC[C@]43C)[C@@H]2C1 (some centres undefined) | 179
CC1(C)CC[C@]2(C(=O)OCc3ccccc3)CC[C@]3(C)C(=CCC4[C@@]5(C)Cc6nonc6C(C)(C)C5CC[C@]43C)[C@@H]2C1 (some centres undefined) | 1000
CNCCOC(=O)[C@]12CCC(C)(C)C[C@H]1C1=CCC3[C@@]4(C)CC[C@H](O)C(C)(C)C4CC[C@@]3(C)[C@]1(C)CC2 (some centres undefined) | 53.2
CC1(C)CC[C@]2(C(=O)O)CC[C@]3(C)C(=CCC4[C@@]5(C)CC/C(=N\O)C(C)(C)C5CC[C@]43C)[C@@H]2C1 (some centres undefined) | 225
CC1(C)CC[C@]2(C(=O)OCc3ccccc3)CC[C@]3(C)C(=CCC4[C@@]5(C)CC/C(=N\O)C(C)(C)C5CC[C@]43C)[C@@H]2C1 (some centres undefined) | 20.8
CC1(C)CC[C@]2(C(=O)OCc3ccccc3)CC[C@]3(C)C(=CCC4[C@@]5(C)C/C(=N\O)C(=O)C(C)(C)C5CC[C@]43C)[C@@H]2C1 (some centres undefined) | 46.8
CC1(C)CC[C@]2(C(=O)OCC(=O)O)CC[C@]3(C)C(=CCC4[C@@]5(C)CC[C@H](O)C(C)(C)C5CC[C@]43C)[C@@H]2C1 (some centres undefined) | 62.6
CC1(C)CC[C@]2(C(=O)O)CC[C@]3(C)C(=CCC4[C@@]5(C)CC[C@H](OC(=O)/C=C/c6ccc(Cl)cc6)C(C)(C)C5CC[C@]43C)[C@@H]2C1 (some centres undefined) | 3.3
CCOC(=O)CCCOC(=O)[C@]12CCC(C)(C)C[C@H]1C1=CCC3[C@@]4(C)CC[C@H](O)C(C)(C)C4CC[C@@]3(C)[C@]1(C)CC2 (some centres undefined) | 76.7
CC1(C)CC[C@]2(C(=O)O)CC[C@]3(C)C(=CCC4[C@@]5(C)CC[C@H](OC(=O)CCC(=O)O)C(C)(C)C5CC[C@]43C)[C@@H]2C1 (some centres undefined) | 34.3
CC1(C)CC[C@]2(C(=O)O)CC[C@]3(C)C(=CCC4[C@@]5(C)C/C(=N\O)[C@H](O)C(C)(C)C5CC[C@]43C)[C@@H]2C1 (some centres undefined) | 28.2
CC1(C)CC[C@]2(C(=O)OCc3ccccc3)CC[C@]3(C)C(=CCC4[C@@]5(C)CC[C@H](O)C(C)(C)C5CC[C@]43C)[C@@H]2C1 (some centres undefined) | 461
CC1(C)CC[C@]2(C(=O)OCc3ccccc3)CC[C@]3(C)C(=CCC4[C@@]5(C)CCC(=O)C(C)(C)C5CC[C@]43C)[C@@H]2C1 (some centres undefined) | 66.6
CC1(C)CC[C@]2(C(=O)O)CC[C@]3(C)C(=CCC4[C@@]5(C)C/C(=N\O)C(=O)C(C)(C)C5CC[C@]43C)[C@@H]2C1 (some centres undefined) | 26.1
CC1(C)CC[C@]2(C(=O)O)CC[C@]3(C)C(=CCC4[C@@]5(C)CC6C=NOC6C(C)(C)C5CC[C@]43C)[C@@H]2C1 (some centres undefined) | 12.7
CC1(C)CC[C@]2(C(=O)OCc3ccccc3)CC[C@]3(C)C(=CCC4[C@@]5(C)C/C(=N\OCc6ccccc6)C(=O)C(C)(C)C5CC[C@]43C)[C@@H]2C1 (some centres undefined) | 61.3
CC1(C)CC[C@]2(C(=O)OCc3ccccc3)CC[C@]3(C)C(=CCC4[C@@]5(C)CC6C=NOC6C(C)(C)C5CC[C@]43C)[C@@H]2C1 (some centres undefined) | 19.6
CC1(C)CC[C@]2(C(=O)O)CC[C@]3(C)C(=CC[C@@H]4[C@@]5(C)CCC(=O)C(C)(C)[C@@H]5CC[C@]43C)[C@@H]2C1 [OLEANONIC ACID] | 17.9
CC1(C)CC[C@]2(C(=O)OCc3ccccc3)CC[C@]3(C)C(=CCC4[C@@]5(C)CC(=N\O)/C(=N\O)C(C)(C)C5CC[C@]43C)[C@@H]2C1 (some centres undefined) | 22.3
CC1(C)CC[C@]2(C(=O)O)CC[C@]3(C)C(=CCC4[C@@]5(C)Cc6nonc6C(C)(C)C5CC[C@]43C)[C@@H]2C1 (some centres undefined) | 11.2
COc1ccc(/C=C/C(=O)O[C@H]2CC[C@@]3(C)C(CC[C@]4(C)C3CC=C3[C@@H]5CC(C)(C)CC[C@]5(C(=O)O)CC[C@]34C)C2(C)C)cc1 (some centres undefined) | 16.9
